{
  "source": "patent US7361668B2",
  "about": "(priority 2001, dated 2008)",
  "data": [
    {"tested_on": "muscarinic", "conditions": "cited from earlier work", "values": [
      {"smiles": "OC(C#CC1CN2CCC1CC2)(c1ccccc1)c1ccccc1", "note": "(stereo not drawn) [Alpha-(1-azabicyclo[2.2.2]oct-3-ylethynyl)-alpha-phenyl benzenemethanol]", "muscarinic anticholinergic activity": "marked muscarinic anticholinergic activity"}
    ]},
    {"molecular_target": "T1, human recombinant m3 receptor (Homo sapiens, UniProt P20309)", "T1 construct": "expressed in transfected cells; host or cells: CHO cells (membrane preparation)", "T1 sequence (P20309 whole entry)": "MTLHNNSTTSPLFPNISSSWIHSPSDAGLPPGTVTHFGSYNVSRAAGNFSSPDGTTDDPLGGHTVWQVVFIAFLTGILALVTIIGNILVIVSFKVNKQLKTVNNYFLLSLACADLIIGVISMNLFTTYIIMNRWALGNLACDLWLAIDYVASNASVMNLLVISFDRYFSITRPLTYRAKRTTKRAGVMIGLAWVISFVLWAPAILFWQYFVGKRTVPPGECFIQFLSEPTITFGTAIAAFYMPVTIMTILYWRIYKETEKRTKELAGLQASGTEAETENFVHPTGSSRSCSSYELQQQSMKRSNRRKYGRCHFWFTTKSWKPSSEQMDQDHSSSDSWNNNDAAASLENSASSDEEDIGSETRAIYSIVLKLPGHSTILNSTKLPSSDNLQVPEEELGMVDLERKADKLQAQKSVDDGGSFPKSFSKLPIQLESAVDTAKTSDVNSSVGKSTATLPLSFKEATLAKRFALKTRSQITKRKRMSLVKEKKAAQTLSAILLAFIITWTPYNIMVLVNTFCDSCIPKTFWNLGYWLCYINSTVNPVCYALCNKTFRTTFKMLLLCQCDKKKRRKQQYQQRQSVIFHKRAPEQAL", "type": "binding", "conditions": "not given", "values": [
      {"smiles": "COC1(C#CC(C#N)(c2ccccc2)c2ccccc2)CN2CCC1CC2", "note": "(racemic) [Compound 64, 4-(3-methoxy-1-azabicyclo[2.2.2]oct-3-yl)-2,2-diphenyl-3-butynenitrile]", "affinity (in words)": "High affinities"},
      {"smiles": "CO[C@]1(C#CC(O)(c2ccccc2)c2cccc(C)c2)CN2CCC1CC2", "note": "(stereo partly drawn) [Compound 72, 3-[(3R)-3-methoxy-1-azabicyclo[2.2.2]oct-3-yl]-1-(3-methylphenyl)-1-phenylprop-2-yn-1-ol]", "affinity (in words)": "High affinities"},
      {"smiles": "CO[C@]1(C#CC(O)(c2ccccc2)c2ccc3c(c2)CCC3)CN2CCC1CC2", "note": "(stereo partly drawn) [Compound 80, 1-(2,3-dihydro-1H-inden-5-yl)-3-[(3R)-3-methoxy-1-azabicyclo[2.2.2]oct-3-yl]-1-phenyl-2-propyn-1-ol]", "affinity (in words)": "High affinities"},
      {"smiles": "CO[C@]1(C#CC(O)(c2ccccc2)C2CCCCCCC2)CN2CCC1CC2", "note": "(stereo partly drawn) [Compound 89, 1-cyclooctyl-3-[(3R)-3-methoxy-1-azabicyclo[2.2.2]oct-3-yl]-1-phenyl-2-propyn-1-ol]", "affinity (in words)": "High affinities"},
      {"smiles": "CO[C@]1(C#CC(O)(c2ccccc2)C2CCCCCCC2)CN2CCC1CC2", "note": "(stereo partly drawn) [Compound 90, 1-cyclooctyl-3-[(3R)-3-methoxy-1-azabicyclo[2.2.2]oct-3-yl]-1-phenyl-2-propyn-1-ol]", "affinity (in words)": "High affinities"},
      {"smiles": "CO[C@]1(C#CC(O)(c2ccccc2)C2CCCCCCC2)CN2CCC1CC2", "note": "(stereo partly drawn) [Compound 91, 1-cyclooctyl-3-[(3R)-3-methoxy-1-azabicyclo[2.2.2]oct-3-yl]-1-phenyl-2-propyn-1-ol]", "affinity (in words)": "High affinities"},
      {"smiles": "OC(C#CC1(F)CN2CCC1CC2)(c1ccccc1)C1CCCCC1", "note": "(stereo not drawn) [Compound 111, 1-cyclohexyl-3-(3-fluoro-1-azabicyclo[2.2.2]oct-3-yl)-1-phenylprop-2-yn-1-ol]", "affinity (in words)": "High affinities"},
      {"smiles": "CO[C@]1(C#CC(F)(c2ccccc2)C2CCCCC2)CN2CCC1CC2", "note": "(stereo partly drawn) [Compound 113, (3R)-3-(3-cyclohexyl-3-fluoro-3-phenyl-1-propynyl)-3-methoxy-1-azabicyclo[2.2.2]octane]", "affinity (in words)": "High affinities"},
      {"smiles": "CO[C@]1(C#CC(O)(c2cccs2)C2CCCCC2)CN2CCC1CC2", "note": "(stereo partly drawn) [Compound 115, 1-cyclohexyl-3-[(3R)-3-methoxy-1-azabicyclo[2.2.2]oct-3-yl]-1-(2-thienyl)-2-propyn-1-ol]", "affinity (in words)": "High affinities"},
      {"smiles": "CO[C@]1(C#CC(O)(c2ccccc2)C2CCCCCC2)CN2CCC1CC2", "note": "(stereo partly drawn) [Compound 116, 1-cycloheptyl-3-[(3R)-3-methoxy-1-azabicyclo[2.2.2]oct-3-yl]-1-phenyl-2-propyn-1-ol]", "affinity (in words)": "High affinities"},
      {"smiles": "CO[C@]1(C#C[C@](O)(c2ccccc2)C2CCCCCC2)CN2CCC1CC2", "note": "[Compound 117, (1R)-1-cycloheptyl-3-[(3R)-3-methoxy-1-azabicyclo[2.2.2]oct-3-yl]-1-phenyl-2-propyn-1-ol]", "affinity (in words)": "High affinities"},
      {"smiles": "CO[C@]1(C#C[C@@](O)(c2ccccc2)C2CCCCCC2)CN2CCC1CC2", "note": "[Compound 118, (1S)-1-cycloheptyl-3-[(3R)-3-methoxy-1-azabicyclo[2.2.2]oct-3-yl]-1-phenyl-2-propyn-1-ol]", "affinity (in words)": "High affinities"},
      {"smiles": "CO[C@]1(C#C[C@](O)(c2ccccc2)C2CCCCCC2)C[N+]2(C)CCC1CC2.[I-]", "note": "[Compound 119, (3R)-3-[(3R)-3-cycloheptyl-3-hydroxy-3-phenyl-1-propynyl]-3-methoxy-1-methyl-1-azoniabicyclo[2.2.2]octane iodide]", "affinity (in words)": "High affinities"},
      {"smiles": "CO[C@]1(C#CC(O)(c2cccnc2)C2CCCCCC2)CN2CCC1CC2", "note": "(stereo partly drawn) [Compound 122, 1-cycloheptyl-3-[(3R)-3-methoxy-1-azabicyclo[2.2.2]oct-3-yl]-1-(3-pyridinyl)-2-propyn-1-ol]", "affinity (in words)": "High affinities"},
      {"smiles": "CO[C@]1(C#CC(O)(c2cccs2)C2CCCCCC2)CN2CCC1CC2", "note": "(stereo partly drawn) [Compound 123, 1-cycloheptyl-3-[(3R)-3-methoxy-1-azabicyclo[2.2.2]oct-3-yl]-1-(2-thienyl)-2-propyn-1-ol]", "affinity (in words)": "High affinities"},
      {"smiles": "CO[C@]1(C#CC(O)(c2cccnc2F)C2CCCCCC2)CN2CCC1CC2", "note": "(stereo partly drawn) [Compound 124, 1-cycloheptyl-1-(2-fluoro-3-pyridinyl)-3-[(3R)-3-methoxy-1-azabicyclo[2.2.2]oct-3-yl]-2-propyn-1-ol]", "affinity (in words)": "High affinities"},
      {"smiles": "CO[C@]1(C#CC(O)(c2ccccc2)C2CCC=CCC2)CN2CCC1CC2", "note": "(stereo partly drawn) [Compound 126, 1-(4-cyclohepten-1-yl)-3-[(3R)-3-methoxy-1-azabicyclo[2.2.2]oct-3-yl]-1-phenyl-2-propyn-1-ol]", "affinity (in words)": "High affinities"},
      {"smiles": "CO[C@]1(C#CC(O)(c2ccc(F)cc2)c2ccc(F)nc2)CN2CCC1CC2", "note": "(stereo partly drawn) [Compound 139, 1-(4-fluorophenyl)-1-(6-fluoro-3-pyridinyl)-3-[(3R)-3-methoxy-1-azabicyclo[2.2.2]oct-3-yl]-2-propyn-1-ol]", "affinity (in words)": "High affinities"},
      {"smiles": "CO[C@]1(C#CC(O)(c2ccc(F)cc2)c2cccnc2F)CN2CCC1CC2", "note": "(stereo partly drawn) [Compound 141, 1-(4-fluorophenyl)-1-(2-fluoro-3-pyridinyl)-3-[(3R)-3-methoxy-1-azabicyclo[2.2.2]oct-3-yl]-2-propyn-1-ol]", "affinity (in words)": "High affinities"},
      {"smiles": "CO[C@]1(C#CC(O)(c2cccs2)c2cccs2)C[N+]2(C)CCC1CC2.[I-]", "note": "[Compound 155, (3R)-3-[3-hydroxy-3,3-di(2-thienyl)-1-propynyl]-3-methoxy-1-methyl-1-azoniabicyclo[2.2.2]octane iodide]", "affinity (in words)": "High affinities"},
      {"smiles": "CO[C@]1(C#CC(O)(c2ccccc2)C23CC4CC(CC(C4)C2)C3)CN2CCC1CC2", "note": "(stereo partly drawn) [Compound 162, 1-(1-adamantyl)-3-[(3R)-3-methoxy-1-azabicyclo[2.2.2]oct-3-yl]-1-phenyl-2-propyn-1-ol]", "affinity (in words)": "High affinities"},
      {"smiles": "COC1(C#CC(O)(c2ccccc2)C2CC3C=CC2C3)CN2CCC1CC2", "note": "(stereo not drawn) [Compound 166, 1-bicyclo[2.2.1]hept-5-en-2-yl-3-(3-methoxy-1-azabicyclo[2.2.2]oct-3-yl)-1-phenyl-2-propyn-1-ol]", "affinity (in words)": "High affinities"},
      {"smiles": "CCC(CC)C(O)(C#C[C@@]1(OC)CN2CCC1CC2)c1ccccc1", "note": "(stereo partly drawn) [Compound 168, 4-ethyl-1-[(3R)-3-methoxy-1-azabicyclo[2.2.2]oct-3-yl]-3-phenyl-1-hexyn-3-ol]", "affinity (in words)": "High affinities"},
      {"smiles": "C=CCCC(O)(C#C[C@@]1(OC)CN2CCC1CC2)c1ccccc1", "note": "(stereo partly drawn) [Compound 169, 1-[(3R)-3-methoxy-1-azabicyclo[2.2.2]oct-3-yl]-3-phenyl-6-hepten-1-yn-3-ol]", "affinity (in words)": "High affinities"},
      {"smiles": "CO[C@]1(C#CC(O)(c2ccccc2)C2CSCCSC2)CN2CCC1CC2", "note": "(stereo partly drawn) [Compound 172, 1-(1,4-dithiepan-6-yl)-3-[(3R)-3-methoxy-1-azabicyclo[2.2.2]oct-3-yl]-1-phenyl-2-propyn-1-ol]", "affinity (in words)": "High affinities"},
      {"smiles": "CO[C@]1(C#CC(O)(c2ccccc2)C2CCSCC2)CN2CCC1CC2", "note": "(stereo partly drawn) [Compound 173, 3-[(3R)-3-methoxy-1-azabicyclo[2.2.2]oct-3-yl]-1-phenyl-1-tetrahydro-2H-thiopyran-4-yl-2-propyn-1-ol]", "affinity (in words)": "High affinities"},
      {"smiles": "CO[C@]1(C#CC(O)(c2ccccc2)C2CCSCC2)CN2CCC1CC2", "note": "(stereo partly drawn) [Compound 174, 3-[(3R)-3-methoxy-1-azabicyclo[2.2.2]oct-3-yl]-1-phenyl-1-tetrahydro-2H-thiopyran-4-yl-2-propyn-1-ol]", "affinity (in words)": "High affinities"},
      {"smiles": "CO[C@]1(C#CC(O)(c2ccccc2)C2CC3CCC(C3)C2)CN2CCC1CC2", "note": "(stereo partly drawn) [Compound 176, 1-bicyclo[3.2.1]oct-3-yl-3-[(3R)-3-methoxy-1-azabicyclo[2.2.2]oct-3-yl]-1-phenyl-2-propyn-1-ol]", "affinity (in words)": "High affinities"},
      {"smiles": "CO[C@]1(C#CC(O)(c2ccccc2)C2CC3CCC(C2)S3)CN2CCC1CC2", "note": "(stereo partly drawn) [Compound 177, 3-[(3R)-3-methoxy-1-azabicyclo[2.2.2]oct-3-yl]-1-phenyl-1-(8-thiabicyclo[3.2.1]oct-3-yl)-2-propyn-1-ol]", "affinity (in words)": "High affinities"},
      {"smiles": "CO[C@]1(C#CC(O)(CC(C)(C)C)c2cccs2)CN2CCC1CC2", "note": "(stereo partly drawn) [Compound 185, 1-[(3R)-3-methoxy-1-azabicyclo[2.2.2]oct-3-yl]-5,5-dimethyl-3-(2-thienyl)-1-hexyn-3-ol]", "affinity (in words)": "High affinities"},
      {"smiles": "CO[C@]1(C#CC(O)(CC2CCCC2)c2cccs2)CN2CCC1CC2", "note": "(stereo partly drawn) [Compound 188, 1-cyclopentyl-4-[(3R)-3-methoxy-1-azabicyclo[2.2.2]oct-3-yl]-2-(2-thienyl)-3-butyn-2-ol]", "affinity (in words)": "High affinities"},
      {"smiles": "CO[C@]1(C#CC(O)(c2ccccn2)c2ccc(Cl)s2)CN2CCC1CC2", "note": "(stereo partly drawn) [Compound 190, 1-(5-chloro-2-thienyl)-3-[(3R)-3-methoxy-1-azabicyclo[2.2.2]oct-3-yl]-1-(2-pyridinyl)-2-propyn-1-ol]", "affinity (in words)": "High affinities"}
    ]}
  ]
}
